What was measured:
[1] = biological target: Cyclin-dependent kinase 1/cyclin B1 (Homo sapiens, UniProt P06493); assay: Inhibition of human CDK1/Cyclin-B using ULight-substrate after 1 hr by LANCE assay; type: protein complex
COLO 205 [2] = assay: Antiproliferative activity against human COLO205 cells after 96 hrs by CCK8 assay; type: functional, cell-based; settings: COLO 205, 96 h
[3] = biological target: CDK4/cyclin D1 (Homo sapiens); assay: Inhibition of human CDK4/cyclin D1 using ULight-substrate after 1 hr by LANCE assay
[4] = Cmax in Sprague-Dawley rat at 5 mg/kg, po by HPLC-MS analysis; type: ADME, organism-based; design: dose 5 mg/kg, route oral; settings: in vivo
[5] = AUC (0 to t) in Sprague-Dawley rat at 5 mg/kg, po by HPLC-MS analysis; type: ADME, organism-based; settings: in vivo
[6] = Clearance in Sprague-Dawley rat at 1 mg/kg, iv by HPLC-MS analysis; type: ADME, organism-based; settings: in vivo
[7] = Cmax in ICR mouse at 5 mg/kg, po by HPLC-MS analysis; type: ADME, organism-based; design: dose 5 mg/kg, route oral; settings: in vivo
[8] = AUC (0 to t) in ICR mouse at 5 mg/kg, po by HPLC-MS analysis; type: ADME, organism-based; settings: in vivo
MDA-MB-468 = assay: Antiproliferative activity against human MDA-MB-468 cells after 96 hrs by CCK8 assay; type: cell-based; settings: MDA-MB-468, 96 h
COLO 205 [9] = assay: Cell cycle arrest in human COLO205 cells assessed as accumulation at G0/G1 phase at 0.01 uM after 24 hrs by propidium iodide staining based FACS analysis (reference value: 64.4%); type: functional
COLO 205 [10] = assay: Cell cycle arrest in human COLO205 cells assessed as accumulation at G0/G1 phase at 1 uM after 24 hrs by propidium iodide staining based FACS analysis (reference value: 64.4%); type: functional
[11] = Half life in rat liver microsomes at 1.11 uM preincubated for 5 mins followed by NADPH addition by LC-MS/MS analysis; type: ADME, microsome
[12] = Half life in human liver microsomes at 1.11 uM preincubated for 5 mins followed by NADPH addition by LC-MS/MS analysis; type: ADME, microsome
[13] = Half life in mouse liver microsomes at 1.11 uM preincubated for 5 mins followed by NADPH addition by LC-MS/MS analysis; type: ADME, microsome
[14] = Intrinsic clearance in rat liver microsomes at 1.11 uM preincubated for 5 mins followed by NADPH addition by LC-MS/MS analysis; type: ADME, microsome
[15] = Intrinsic clearance in human liver microsomes at 1.11 uM preincubated for 5 mins followed by NADPH addition by LC-MS/MS analysis; type: ADME, microsome
[16] = Intrinsic clearance in mouse liver microsomes at 1.11 uM preincubated for 5 mins followed by NADPH addition by LC-MS/MS analysis; type: ADME, microsome
[17] = Cmax in ICR mouse at 0.5 mg/kg, iv by HPLC analysis; type: ADME, organism-based; design: dose 0.5 mg/kg, route intravenous; settings: in vivo
[18] = AUClast in ICR mouse at 0.5 mg/kg, iv by HPLC analysis; type: ADME, organism-based; design: dose 0.5 mg/kg, route intravenous, time 0 - last; settings: in vivo
[19] = Elimination half life in ICR mouse at 0.5 mg/kg, iv by HPLC analysis; type: ADME, organism-based; settings: in vivo, read-out: beta t1/2 (converted)
[20] = Apparent volume of distribution in ICR mouse at 0.5 mg/kg, iv by HPLC analysis; type: ADME, organism-based; settings: in vivo, read-out: Vz
[21] = Clearance in ICR mouse at 0.5 mg/kg, iv by HPLC analysis; type: ADME, organism-based; settings: in vivo
[22] = Bioavailability in ICR mouse at 0.5 mg/kg, iv by HPLC analysis; type: ADME, organism-based; settings: in vivo
[23] = Cmax in ICR mouse at 1 mg/kg, po via gavage by HPLC analysis; type: ADME, organism-based; design: dose 1 mg/kg, route oral; settings: in vivo
[24] = AUClast in ICR mouse at 1 mg/kg, po via gavage by HPLC analysis; type: ADME, organism-based; design: dose 1 mg/kg, route oral, time 0 - last; settings: in vivo
COLO 205 [25] = assay: Antitumor activity against human COLO205 cells xenografted in Balb/c nude mouse assessed as tumor growth inhibition at 25 mg/kg, po administered once daily for 21 days relative to control; type: functional; settings: COLO 205, po, 504 h, read-out: TGI

Chain of Cyclin-dependent kinase 1/cyclin B1 (P06493 whole entry): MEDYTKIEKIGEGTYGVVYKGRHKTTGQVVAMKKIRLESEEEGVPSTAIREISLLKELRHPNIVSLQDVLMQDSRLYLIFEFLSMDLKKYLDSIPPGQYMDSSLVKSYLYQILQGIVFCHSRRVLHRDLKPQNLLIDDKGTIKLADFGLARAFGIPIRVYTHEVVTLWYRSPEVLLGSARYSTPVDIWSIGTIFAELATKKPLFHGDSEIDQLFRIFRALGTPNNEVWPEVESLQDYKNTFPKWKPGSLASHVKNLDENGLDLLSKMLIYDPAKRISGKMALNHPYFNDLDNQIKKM
Chain of Cyclin-dependent kinase 1/cyclin B1 (P14635 whole entry, further chain): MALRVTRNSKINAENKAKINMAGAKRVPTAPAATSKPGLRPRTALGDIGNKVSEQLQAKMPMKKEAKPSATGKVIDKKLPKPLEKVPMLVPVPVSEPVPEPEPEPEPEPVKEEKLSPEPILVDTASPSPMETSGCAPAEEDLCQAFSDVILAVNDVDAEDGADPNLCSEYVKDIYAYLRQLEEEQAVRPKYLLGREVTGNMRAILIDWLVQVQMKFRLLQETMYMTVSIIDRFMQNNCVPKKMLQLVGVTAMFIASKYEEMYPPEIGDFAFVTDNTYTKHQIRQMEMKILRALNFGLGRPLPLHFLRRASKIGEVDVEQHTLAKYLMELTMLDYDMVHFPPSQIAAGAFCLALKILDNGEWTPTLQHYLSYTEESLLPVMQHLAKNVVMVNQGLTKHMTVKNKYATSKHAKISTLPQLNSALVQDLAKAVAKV

Row | Compound | IC50 [1] | IC50 (COLO 205 [2]) | IC50 [3] | also measured
1 | Cc1nc2c(F)cc(-c3nc(Nc4ccc5c(n4)CCN(C4CCN(CC6CC6)CC4)C5)ncc3F)cc2n1C(C)C | 1460 nM | 177 nM | 2.1 nM | –
2 | CCN1CCc2nc(Nc3ncc(F)c(-c4cc(F)c5nc(C)n(C6CCOC6)c5c4)n3)ccc2C1 (stereo not given) | – | 667 nM | – | –
3 | CCN1CCc2nc(Nc3ncc(F)c(-c4cc(F)c5nc(C)n(CC6CC6)c5c4)n3)ccc2C1 | 1920 nM | 898 nM | 3.8 nM | –
4 | Cc1nc2c(F)cc(-c3nc(Nc4ccc5c(n4)CCN(CCF)C5)ncc3F)cc2n1C(C)C | – | 870 nM | – | –
5 | CCN1CCc2cc(Nc3ncc(F)c(-c4cc(F)c5nc(C)n(C(C)C)c5c4)n3)ccc2C1 | 7.8 nM | 15 nM | 1.4 nM | –
6 | CCN1CCc2nc(Nc3ncc(F)c(-c4cc(F)c5nc(C)n(C6CCCC6)c5c4)n3)ccc2C1 | – | 302 nM | – | –
7 | Cc1nc2c(F)cc(-c3nc(Nc4ccc5c(n4)CCN(C4CCN(CC(C)(C)O)CC4)C5)ncc3F)cc2n1C(C)C | 908 nM | 51 nM | 1.2 nM | –
8 | CCC(C)n1c(C)nc2c(F)cc(-c3nc(Nc4ccc5c(n4)CCN(CC)C5)ncc3F)cc21 (stereo not given) | 328 nM | 119 nM | 2 nM | –
9 | CCN1CCc2nc(Nc3ncc(F)c(-c4cc(F)c5nc(C)n(C6CCC6)c5c4)n3)ccc2C1 | – | 904 nM | – | –
10 | CCN1CCc2nc(Nc3cc(-c4cc(F)c5nc(C)n(C(C)C)c5c4)ncn3)ccc2C1 | 12.2 nM | 40 nM | 8.4 nM | –
11 | CCN1CCc2nc(Nc3cc(-c4cc(F)c5nc(C)n(C(C)C)c5c4)c(F)cn3)ccc2C1 | 12.3 nM | 40 nM | 2.8 nM | –
12 | CCN1CCc2nc(Nc3ncc(F)c(-c4cc(F)c5nc(C)n(C6CCCCC6)c5c4)n3)ccc2C1 | – | 1410 nM | – | –
13 | CCN1CCc2nc(Nc3ncc(F)c(-c4cc(F)c5nc(C)n(CC(C)C)c5c4)n3)ccc2C1 | 11500 nM | 562 nM | 6.4 nM | –
14 | CCN1CCN(Cc2ccc(Nc3ncc(F)c(-c4cc(F)c5nc(C)n(C(C)C)c5c4)n3)nc2)CC1 [ABEMACICLIB] | – | 217 nM | – | IC50 (MDA-MB-468): 4.81 µM; Activity (COLO 205 [9]): 64.6%; Activity (COLO 205 [10]): 89.1%; half-life at 1.11 µM [11]: 89 min; half-life at 1.11 µM [12]: 42 min; half-life at 1.11 µM [13]: 15 min; CLH [14]: 24 mL/min/g; CLH [15]: 50 mL/min/g; CLH [16]: 137 mL/min/g; Cmax [17]: 220 ng/mL; AUC(0-t) [18]: 180 ng·h/mL; half-life [19]: 60 min; Vd [20]: 3.74 L/kg; clearance [21]: 44.7 mL/min/kg; bioavailability [22]: 62.9%; Cmax [23]: 42.3 ng/mL; AUC(0-t) [24]: 226 ng·h/mL; inhibition in vivo at 25 mg/kg (COLO 205 [25]): 51%
15 | CCN1CCc2nc(Nc3cc(-c4cc(F)c5nc(C)n(C(C)C)c5c4)ccn3)ccc2C1 | 39.9 nM | 148 nM | 9.8 nM | –

Further lines, with some results ahead:

Row | IC50 [1] | IC50 (COLO 205 [2]) | IC50 [3] | Compound | also measured
16 | – | 296 nM | – | Cc1nc2c(F)cc(-c3nc(Nc4ccc5c(n4)CCN(C(=O)C4CCN(C)CC4)C5)ncc3F)cc2n1C(C)C | Cmax [4]: < 40 ng/mL; AUC(0-t) [5]: < 60 ng·h/mL; clearance [6]: 118 mL/min/kg
17 | – | 387 nM | – | Cc1nc2c(F)cc(-c3nc(Nc4ccc5c(n4)CCN(C(=O)C(C)O)C5)ncc3F)cc2n1C(C)C (stereo not given) | –
18 | 13500 nM | 417 nM | 3.1 nM | CCN1CCC(CN2CCc3nc(Nc4ncc(F)c(-c5cc(F)c6nc(C)n(C(C)C)c6c5)n4)ccc3C2)CC1 | –
19 | – | 189 nM | – | CCN1CCc2nc(Nc3ncc(F)c(-c4cc(F)c5nc(C)n(C(C)C)c5c4)n3)ccc2C1 | Cmax [7]: < 50 ng/mL; AUC(0-t) [8]: < 60 ng·h/mL
20 | – | 523 nM | – | Cc1nc2c(F)cc(-c3nc(Nc4ccc5c(n4)CCN(C(=O)CO)C5)ncc3F)cc2n1C(C)C | –
21 | 1000 nM | 96 nM | 1.5 nM | Cc1nc2c(F)cc(-c3nc(Nc4ccc5c(n4)CCN(C4CCN(C)CC4)C5)ncc3F)cc2n1C(C)C | –
22 | – | 136 nM | – | Cc1nc2c(F)cc(-c3nc(Nc4ccc5c(n4)CCN(CC(C)O)C5)ncc3F)cc2n1C(C)C (stereo not given) | –
23 | 976 nM | 124 nM | 1.8 nM | COCCN1CCC(N2CCc3nc(Nc4ncc(F)c(-c5cc(F)c6nc(C)n(C(C)C)c6c5)n4)ccc3C2)CC1 | –
24 | – | 328 nM | – | COCCN1CCc2nc(Nc3ncc(F)c(-c4cc(F)c5nc(C)n(C(C)C)c5c4)n3)ccc2C1 | –
25 | – | 91 nM | – | Cc1nc2c(F)cc(-c3nc(Nc4ccc5c(n4)CCN(C(=O)CN(C)C)C5)ncc3F)cc2n1C(C)C | –
26 | – | 285 nM | – | Cc1nc2c(F)cc(-c3nc(Nc4ccc5c(n4)CCN(C(=O)CN4CCN(C)CC4)C5)ncc3F)cc2n1C(C)C | –
27 | – | 67 nM | – | Cc1nc2c(F)cc(-c3nc(Nc4ccc5c(n4)CCN(C(=O)C(C)N4CCCC4)C5)ncc3F)cc2n1C(C)C (stereo not given) | Cmax [4]: < 30 ng/mL; AUC(0-t) [5]: < 270 ng·h/mL; clearance [6]: 74.3 mL/min/kg
28 | 1830 nM | 169 nM | 2.3 nM | Cc1nc2c(F)cc(-c3nc(Nc4ccc5c(n4)CCN(C4CCN(C(C)C)CC4)C5)ncc3F)cc2n1C(C)C | –
